{
  "source": "patent US7674810B2",
  "about": "“1,1-dioxo-1H-1Λ6-benzo[d]isothiazol-3-yl)-4-hydroxy-1,5-dihydro-pyrrol-2-one inhibitors of HCV polymerase” (Roche Palo Alto LLC, priority 2006, dated 2010)",
  "key": {"HCV NS5B570n-BK": {"target": "T1, HCV NS5B570n-BK (Hepatitis C virus genotype 1b, UniProt P26663)", "T1 construct": "histidine tag (N); made in house; host or cells: E. coli strain M15", "T1 sequence (P26663 2421-2999)": "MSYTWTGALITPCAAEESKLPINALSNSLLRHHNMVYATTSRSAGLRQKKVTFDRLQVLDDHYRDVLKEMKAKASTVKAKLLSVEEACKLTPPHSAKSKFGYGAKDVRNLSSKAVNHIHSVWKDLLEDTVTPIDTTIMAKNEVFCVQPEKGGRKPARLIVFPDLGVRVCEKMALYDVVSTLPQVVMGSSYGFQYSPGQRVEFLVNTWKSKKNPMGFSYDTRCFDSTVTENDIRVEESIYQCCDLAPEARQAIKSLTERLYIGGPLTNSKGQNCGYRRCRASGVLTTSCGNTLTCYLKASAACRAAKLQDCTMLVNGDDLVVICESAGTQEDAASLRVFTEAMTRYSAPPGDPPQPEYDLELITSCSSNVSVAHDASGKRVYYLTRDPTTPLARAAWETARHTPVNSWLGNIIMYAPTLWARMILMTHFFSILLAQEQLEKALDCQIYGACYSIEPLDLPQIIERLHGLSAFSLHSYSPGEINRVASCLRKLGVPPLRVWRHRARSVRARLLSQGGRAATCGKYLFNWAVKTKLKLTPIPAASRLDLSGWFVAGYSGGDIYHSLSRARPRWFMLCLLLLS", "assay": "HCV NS5B RNA Polymerase Activity", "type": "biochemical, HCV BK strain", "details": "poly A:oligo U16, tritiated UTP, 2 h at 30° C.", "method": "The enzymatic activity of HCV NS5B570n-BK is measured as incorporation of radiolabeled nucleotide monophosphates into acid insoluble RNA products. Unincorporated radiolabel substrate is removed by filtration and scintillant is added to the washed and dried filter plate containing radiolabeled RNA product. The light emitted by the scintillant is proportional to the amount of RNA product generated by NS5B570n-BK at the endpoint of the reaction.\nThe N-terminally histidine tagged HCV polymerase, derived from HCV BK strain, genotype 1b (NS5B570n-BK) contains a 21 amino acid deletion at the C-terminus relative to the full-length HCV polymerase and is purified from E. coli strain M15. The construct containing the coding sequence of HCV BK strain amino acid residues 2421-2999 (GenBank accession number M58335) downstream of a Taq promoter expression cassette was inserted into plasmid constructs. The plasmid constructs are transformed in E. coli and colonies are inoculated and grown overnight in 10 L of Terrific broth (Tartoff and Hobbs) supplemented with 100 μg/mL ampicillin at 37° C. Protein expression is induced by addition of 1 mM isopropyl-β-D -thiogalactopyranoside (IPTG), when optical densities reaches between 1.5 and 3.5 OD600 and the culture is then incubated for 16- to 18 h at 22° C. NS5B570n -BK is purified to homogeneity using a three step protocol including subsequent column chromatography on Ni-NTA, SP-Sepharose HP and Superdex 75 resins.\nEach 50 μl enzymatic reaction contains 8:4 μg/mL poly A:oligo U16 (template:primer), 200 nM NS5B570n-BK enzyme, 2.1 μCi of tritiated UTP (Perkin Elmer catalog no. TRK -412; specific activity: 30 to 60 Ci/mmol; stock solution concentration from 7.5×10^−5 M to 20.6×10^−6 M), 1 μM ATP, CTP, and GTP, 40 mM Tris-HCl pH 8.0, 2 to 40 mM NaCl, 4 mM DTT (dithiothreitol), 4 mM MgCl2, and 5 μl of compound serial diluted in DMSO. Reaction mixtures are assembled in MADVN0B 96-well filter plates (Millipore Co.) and incubated for 2 h at 30° C. Reactions are stopped by addition of 10% (v/v) trichloroacetic acid and incubated for 40 min at 4° C. Reactions are filtered, washed with 6 reaction volumes of 10% (v/v) trichloroacetic acetic acid, 2 reaction volumes of 70% (v/v) ethanol, air dried, and 25 μl of scintillant (Microscint 20, Perkin-Elmer) is added to each reaction well.\nThe amount of light emitted from the scintillant is converted to counts per minute (CPM) on a Topcount® plate reader (Perkin-Elmer, Energy Range: Low, Efficiency Mode: Normal, Count Time: 1 min, Background Subtract: none, Cross talk reduction: Off).\nData is analyzed with GraphPad® Prism® and/or Microsoft® Excel®. The reaction in the absence of enzyme is used to determine the background signal, which is subtracted from the enzymatic reactions. Positive control reactions are performed in the absence of compound, from which the background corrected activity is set as 100% polymerase activity. All data is expressed as a percentage of the positive control. The compound concentration at which the enzyme-catalyzed rate of RNA synthesis is reduced by 50% (IC50) is calculated by fitting equation (i) to\n[formula] the data, where “Y” corresponds to the relative enzyme activity (in %), “% Min” is the residual relative enzymatic activity at saturating compound concentration, “% Max” is the maximal relative enzymatic activity compared to positive control, X corresponds to the compound concentration, and “S” is the Hill coefficient (or slope). […]"}, "[1]": {"tested_on": "Renilla luciferase HCV replicon cells (2209-23)", "assay": "Renilla luciferase Assay (HCV replicon)", "type": "cell-based, HCV; human hepatoma Huh7 cells", "details": "72 h; replicon cell line 2209-23, three days incubation; read-out: R. luciferase Activity IC50"}, "HCV": {"tested_on": "HCV", "details": "cited from earlier work"}},
  "data": [
    {"smiles": "CC(C)(C)[C@H]1C(O)=C(C2=NS(=O)(=O)c3ccccc32)C(=O)N1Cc1ccc(F)c(Cl)c1", "note": "[II-31, (S)-5-tert-Butyl-1-(3-chloro-4-fluoro-benzyl)-3-(1,1-dioxo-1H-1λ^6-benzo[d]isothiazol-3-yl)-4-hydroxy-1,5-dihydro-pyrrol-2-one]", "values": [
      {"measurement": "melting point", "value": "81 to 96", "unit": "°C"},
      {"measurement": "IC50", "setting": "HCV NS5B570n-BK", "value": 208, "unit": "nM"},
      {"measurement": "IC50", "setting": "[1]", "value": 288, "unit": "nM"}
    ]},
    {"smiles": "CC(C)(C)[C@H]1C(O)=C(C2=NS(=O)(=O)c3c(CNS(C)(=O)=O)cccc32)C(=O)N1Cc1ccc(F)cc1", "note": "[II-23, N-{3-[(S)-5-tert-Butyl-1-(4-fluoro-benzyl)-4-hydroxy-2-oxo-2,5-dihydro-1H-pyrrol-3-yl]-1,1-dioxo-1H-1λ^6-benzo[d]isothiazol-7-ylmethyl}-methanesulfonamide]", "values": [
      {"measurement": "melting point", "value": "105 to 128", "unit": "°C"},
      {"measurement": "IC50", "setting": "HCV NS5B570n-BK", "value": 76, "unit": "nM"},
      {"measurement": "IC50", "setting": "[1]", "value": 56, "unit": "nM"}
    ]},
    {"smiles": "CN(Cc1cccc2c1S(=O)(=O)N=C2C1=C(O)C(C(C)(C)C)N(Cc2ccc(F)cc2)C1=O)S(C)(=O)=O", "note": "(centres unmarked) [II-35, N-{3-[5-tert-Butyl-1-(4-fluoro-benzyl)-4-hydroxy-2-oxo-2,5-dihydro-1H-pyrrol-3-yl]-1,1-dioxo-1H-1λ^6-benzo[d]isothiazol-7-ylmethyl}-N-methyl-methanesulfonamide]", "values": [
      {"measurement": "melting point", "value": "115 to 125", "unit": "°C"},
      {"measurement": "IC50", "setting": "HCV NS5B570n-BK", "value": 154, "unit": "nM"},
      {"measurement": "IC50", "setting": "[1]", "value": 108, "unit": "nM"}
    ]},
    {"smiles": "Cc1cc(CN2C(=O)C(C3=NS(=O)(=O)c4ccccc43)=C(O)[C@@H]2C(C)(C)C)ccc1F", "note": "[II-15, (S)-5-tert-Butyl-3-(1,1-dioxo-1H-1λ^6-benzo[d]isothiazol-3-yl)-1-(4-fluoro-3-methyl-benzyl)-4-hydroxy-1,5-dihydro-pyrrol-2-one]", "values": [
      {"measurement": "melting point", "value": "105 to 111", "unit": "°C"},
      {"measurement": "IC50", "setting": "HCV NS5B570n-BK", "value": 138, "unit": "nM"},
      {"measurement": "IC50", "setting": "[1]", "value": 125, "unit": "nM"}
    ]},
    {"smiles": "CC(C)(C)C1C(O)=C(C2=NS(=O)(=O)c3c(O)cccc32)C(=O)N1Cc1ccc(F)cc1", "note": "(centres unmarked) [II-6, 5-tert-Butyl-1-(4-fluoro-benzyl)-4-hydroxy-3-(7-hydroxy-1,1-dioxo-1H-1λ^6-benzo[d]isothiazol-3-yl)-1,5-dihydro-pyrrol-2-one]", "values": [
      {"measurement": "melting point", "value": "> 250", "unit": "°C"},
      {"measurement": "IC50", "setting": "HCV NS5B570n-BK", "value": 52, "unit": "nM"},
      {"measurement": "IC50", "setting": "[1]", "value": 3260, "unit": "nM"}
    ]},
    {"smiles": "NC(=O)c1ncn([C@@H]2O[C@H](CO)[C@@H](O)[C@H]2O)n1", "note": "[ribavirin, 1-((2R,3R,4S,5R)-3,4-dihydroxy-5-hydroxymethyl-tetrahydro-furan-2-yl)-1H-[1,2,4]triazole-3-carboxylic acid amide]", "values": [
      {"measurement": "effect on serum levels of HCV-RNA", "setting": "HCV; monotherapy / sole treatment", "value": "does not lower serum levels of HCV-RNA"},
      {"measurement": "patients in whom serum amino transferase levels are reduced to normal", "setting": "HCV; monotherapy", "value": 40, "unit": "%"}
    ]}
  ]
}
